Test results taken from publication PMC11974249 (Drug metabolism and pharmacokinetics, 2024).

Experiments:
[1] = tested on: arecoline hydrolase activity in HLM; assay: Reaction phenotyping with esterase inhibitors in HLM; assay type: biochemical, human; conditions: HLM 0.2 mg/ml, arecoline 25 μM, 15 min; loperamide 1 μM, digitonin 20 μM, ethanol 41 mM, BNPP 10 μM, BW284c51 25 μM, ethopropazine 1 μM, vinblastine 10 μM
[2] = tested on: arecoline hydrolase activity in HLC; assay: Reaction phenotyping with esterase inhibitors in HLC; assay type: biochemical, human; conditions: HLC 0.2 mg/ml, arecoline 25 μM, 15 min; inhibitor concentrations as in HLM
human recombinant CES1 = molecular target: T1, human recombinant CES1 (Homo sapiens, UniProt P23141); assay: Arecoline hydrolysis by human recombinant CES1; assay type: in vitro ADME; conditions: 5–40 min, CES protein 0.1–0.4 mg/ml
T1 sequence (P23141 18-567): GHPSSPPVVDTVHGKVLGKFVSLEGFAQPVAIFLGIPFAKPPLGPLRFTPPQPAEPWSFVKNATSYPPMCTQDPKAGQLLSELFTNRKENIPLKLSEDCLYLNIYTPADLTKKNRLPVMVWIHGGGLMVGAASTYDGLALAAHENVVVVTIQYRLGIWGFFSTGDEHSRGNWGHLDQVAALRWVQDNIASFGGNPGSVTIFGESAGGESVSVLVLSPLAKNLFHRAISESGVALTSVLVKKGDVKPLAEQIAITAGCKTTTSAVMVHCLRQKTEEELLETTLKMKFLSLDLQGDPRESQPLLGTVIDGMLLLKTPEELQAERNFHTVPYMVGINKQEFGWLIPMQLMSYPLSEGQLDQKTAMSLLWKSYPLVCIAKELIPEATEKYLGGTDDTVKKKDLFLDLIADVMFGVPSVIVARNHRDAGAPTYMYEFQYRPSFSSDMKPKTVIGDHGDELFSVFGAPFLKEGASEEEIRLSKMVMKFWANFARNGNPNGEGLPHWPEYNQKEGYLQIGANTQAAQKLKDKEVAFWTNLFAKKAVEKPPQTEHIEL

[3] = Enzyme kinetics of hydrolysis; assay type: in vitro ADME, human; conditions: for Vmax: HLC 0.2 mg/ml, 15 min, 37 °C, rate of carboxylate metabolite formation; for Km at 15 min / CLint scaled / microsomal CLint: both, human, pH 7.4; for Km at 15 min: human liver cytosol (pooled); for CLint scaled / microsomal CLint: human liver cytosol
[4] = Enzyme kinetics of hydrolysis; assay type: in vitro ADME, human; conditions: for EH: hepatic extraction ratio; for ClH: well-stirred model, Q 21 ml/min/kg; for Km at 15 min / CLint scaled / microsomal CLint: both, human, pH 7.4; for Km at 15 min: human liver microsomes (pooled); for CLint scaled / microsomal CLint: human liver microsomes
[5] = Depletion of parent compound over 90 min in fresh or thermally-inactivated HLM; assay type: in vitro ADME, human; conditions: for parent level remaining: at 90 min
[6] = Arecoline hydrolysis in human intestinal microsomes and cytosol; assay type: in vitro ADME
[7] = Depletion of parent compound over 90 min in fresh or thermally-inactivated HLC; assay type: in vitro ADME, human
[8] = subjects with Alzheimer's disease treated with arecoline; cited from earlier work
[9] = Fraction unbound to plasma proteins by ultrafiltration; assay type: in vitro ADME; conditions: plasma protein in sodium phosphate buffer, pH 7.4
plasma proteins = assay: as above; assay type: in vitro ADME; conditions: from fu.p
[10] = mouse liver homogenate, cited from earlier work
human recombinant CES2 = molecular target: T2, human recombinant CES2 (Homo sapiens, UniProt O00748); assay: Arecoline hydrolysis by human recombinant CES2; assay type: in vitro ADME; conditions: 5–40 min, CES protein 0.1–0.4 mg/ml
T2 sequence (O00748 27-559): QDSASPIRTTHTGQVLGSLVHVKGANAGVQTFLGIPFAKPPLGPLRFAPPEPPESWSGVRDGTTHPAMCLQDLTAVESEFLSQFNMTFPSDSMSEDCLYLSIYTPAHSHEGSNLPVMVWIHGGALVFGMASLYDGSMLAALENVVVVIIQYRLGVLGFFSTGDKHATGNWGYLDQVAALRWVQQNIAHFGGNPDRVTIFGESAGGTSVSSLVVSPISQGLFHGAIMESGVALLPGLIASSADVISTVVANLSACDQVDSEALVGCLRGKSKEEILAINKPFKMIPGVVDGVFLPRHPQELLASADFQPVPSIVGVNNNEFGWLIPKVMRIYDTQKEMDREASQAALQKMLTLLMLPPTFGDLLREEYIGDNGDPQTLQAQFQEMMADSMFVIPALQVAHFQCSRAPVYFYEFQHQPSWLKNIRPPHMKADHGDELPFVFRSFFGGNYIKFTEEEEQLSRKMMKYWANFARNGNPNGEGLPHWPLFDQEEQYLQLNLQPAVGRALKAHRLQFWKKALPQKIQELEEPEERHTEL

[11] = both, human, human liver microsomes, pH 7.4
[12] = both, human, human liver cytosol, pH 7.4

## CCN(CC)C(C)CN1c2ccccc2Sc2ccccc21 (centres unmarked) [ethopropazine]
[1]
  percent activity of arecaidine formation compared to control: 102%
[2]
  change in mean percent activity of arecoline hydrolase compared to control: no significant change

## CC[C@]1(O)C[C@@H]2CN(CCc3c([nH]c4ccccc34)[C@@](C(=O)OC)(c3cc4c(cc3OC)N(C)[C@H]3[C@@](O)(C(=O)OC)[C@H](OC(C)=O)[C@]5(CC)C=CCN6CC[C@]43[C@@H]65)C2)C1 [vinblastine]
[1]
  percent activity of arecaidine formation compared to control: 100%
[2]
  change in mean percent activity of arecoline hydrolase compared to control: no significant change

## CCO [ethanol]
[1]
  percent activity of arecaidine formation compared to control: 44.6%
[2]
  change in mean percent activity of arecoline hydrolase compared to control: significant reductions

## C[C@@H]1CC[C@@]2(OC1)O[C@H]1[C@@H](O)[C@H]3[C@@H]4CC[C@H]5C[C@@H](O[C@@H]6O[C@H](CO)[C@H](O[C@@H]7O[C@H](CO)[C@@H](O)[C@H](O[C@@H]8OC[C@@H](O)[C@H](O)[C@H]8O)[C@H]7O[C@@H]7O[C@H](CO)[C@H](O)[C@H](O[C@@H]8O[C@H](CO)[C@@H](O)[C@H](O)[C@H]8O)[C@H]7O)[C@H](O)[C@H]6O)[C@H](O)C[C@]5(C)[C@H]4CC[C@]3(C)[C@H]1[C@@H]2C [digitonin]
[1]
  percent activity of arecaidine formation compared to control: 70%
[2]
  change in mean percent activity of arecoline hydrolase compared to control: significant reductions

## O=[N+]([O-])c1ccc(OP(=O)(O)Oc2ccc([N+](=O)[O-])cc2)cc1 [BNPP, bis(4-nitrophenyl)-phosphate]
[1]
  percent activity of arecaidine formation compared to control: 14.4%
[2]
  change in mean percent activity of arecoline hydrolase compared to control: significant reductions

## CN(C)C(=O)C(CCN1CCC(O)(c2ccc(Cl)cc2)CC1)(c1ccccc1)c1ccccc1 [loperamide]
[1]
  percent activity of arecaidine formation compared to control: 100.2%
[2]
  change in mean percent activity of arecoline hydrolase compared to control: no significant change

## COC(=O)C1=CCCN(C)C1 [arecoline]
Human recombinant CES1
  hydrolysis by CES1: sub-stantial hydrolysis
[3]
  Vmax: 118 nmol/min/mg protein
  Km at 15 min: 9.11 mM
  CLint scaled: 11.6 mL/min/kg
  microsomal CLint: 12.9 µL/min/mg
[4]; HLM
  EH: 0.733
  ClH: 15.4 mL/min/kg
[4]
  Km at 15 min: 8.68 mM
  CLint scaled: 57.8 mL/min/kg
  microsomal CLint: 90.3 µL/min/mg
[4]; from EH in HLM
  extraction ratio class: high (> 0.7)
[5]; HLM
  parent level remaining: 5.6 % control
[5]; [11]
  half-life at 10 μM: 15.7 min
  half-life at 100 μM: 16.6 min
  half-life at 1000 μM: 17.2 min
[6]
  arecoline hydrolysis in intestinal sub-cellular fractions: no arecoline hydrolysis
[7]; at 90 min, initial arecoline 10 μM
  arecoline concentration remaining in HLC samples compared to HLM samples: approximately 12.8 fold
[7]; [12]
  half-life at 10 μM: 97 min
  half-life at 100 μM: 99.8 min
  half-life at 1000 μM: 126 min
[8]
  average elimination T1/2 in plasma: 10.5 min
[9]
  fraction unbound at 15 min: 0.978
Plasma proteins
  amount available for distribution to peripheral tissues: ~ 98%
  amount predicted to bind plasma proteins: ~ 2%
[10]; 30 min incubation
  depletion: ~100%
[10]
  maximum rate of arecoline depletion: 4.7 nmol/min/mg protein
Human recombinant CES2
  hydrolysis by CES2: no hydrolysis

## C=CC[N+](C)(C)c1ccc(CCC(=O)CCc2ccc([N+](C)(C)CC=C)cc2)cc1.[Br-].[Br-] [BW284c51, 1,5-Bis(4-allyldimethylammoniumphenyl)pentan-3-one dibromide]
[1]
  percent activity of arecaidine formation compared to control: 103%
[2]
  change in mean percent activity of arecoline hydrolase compared to control: no significant change

## COC(=O)C1=CCCNC1 [guvacoline]
[3]
  Vmax: 14.4 nmol/min/mg protein
  Km at 15 min: 27.8 mM
  CLint scaled: 0.466 mL/min/kg
  microsomal CLint: 0.518 µL/min/mg
[4]; HLM
  ClH less compared to arecoline: 96%
  Clint.invivo less compared to arecoline: 99%
  EH less compared to arecoline: 96%
  Vmax less compared to arecoline: 96%
  EH: 0.0306
  ClH: 0.643 mL/min/kg
[4]; HLM 0.2 mg/ml, 15 min, 37 °C, rate of carboxylate metabolite formation
  Vmax: 35 nmol/min/mg protein
[4]
  Km at 15 min: 34.3 mM
  CLint scaled: 0.654 mL/min/kg
  microsomal CLint: 1.02 µL/min/mg
[5]; HLM, all concentrations (0.01, 0.1, 1.0 mM), 90 min
  depletion over time: only minimal depletion
[5]; HLM
  parent level remaining: 98 % control
[7]; HLC, all tested concentrations, data not shown
  depletion over time: only minimal depletion
[9]
  fraction unbound at 15 min: 0.998
